Usually IC50 stands for the midpoint of a concentration-inhibition curve. Low readings indicate inhibition by little substance, high ones a need for much substance.

Structures are written as SMILES.

The source of these data is ChEMBL document CHEMBL3608278 (J Med Chem, 2015).

Test [1] addresses T1, Potassium voltage-gated channel subfamily A member 3 (Homo sapiens, UniProt P22001). Set-up: species or system Blood.
Test [2] concerns the target T1, Potassium voltage-gated channel subfamily A member 3. Briefly: cell-based. Set-up: species or system Blood.

T1 sequence (P22001 whole entry): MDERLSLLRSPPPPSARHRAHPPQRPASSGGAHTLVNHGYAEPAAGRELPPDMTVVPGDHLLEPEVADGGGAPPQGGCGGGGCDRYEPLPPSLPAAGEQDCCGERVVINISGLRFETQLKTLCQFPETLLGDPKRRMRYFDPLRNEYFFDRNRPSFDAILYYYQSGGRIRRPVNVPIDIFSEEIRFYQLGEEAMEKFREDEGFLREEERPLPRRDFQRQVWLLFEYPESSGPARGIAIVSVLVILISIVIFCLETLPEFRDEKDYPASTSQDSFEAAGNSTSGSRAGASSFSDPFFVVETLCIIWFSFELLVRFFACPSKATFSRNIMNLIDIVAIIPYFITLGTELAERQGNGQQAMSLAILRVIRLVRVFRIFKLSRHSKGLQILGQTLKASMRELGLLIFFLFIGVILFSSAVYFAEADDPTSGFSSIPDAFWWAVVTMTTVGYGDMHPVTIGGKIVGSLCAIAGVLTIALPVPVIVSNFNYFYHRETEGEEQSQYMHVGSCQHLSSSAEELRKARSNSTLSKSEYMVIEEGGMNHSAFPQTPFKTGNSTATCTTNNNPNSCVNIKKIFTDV

Consider `CC[C@H](C)[C@@H]1NC(=O)[C@@H](NC(=O)[C@H](CO)NC(=O)[C@@H](N)Cc2cccc3ccccc23)CSSC[C@@H](C(=O)O)NC(=O)[C@H]([C@@H](C)O)NC(=O)CNC(=O)[C@@H]2CSSC[C@@H]3NC(=O)[C@H](CCC(N)=O)NC(=O)[C@H](Cc4ccccc4)NC(=O)[C@H](C)NC(=O)[C@H]([C@@H](C)O)NC(=O)[C@H](CSSC[C@H](NC(=O)[C@H](Cc4ccccc4)NC(=O)[C@H](CO)NC(=O)[C@H](CC(C)C)NC(=O)[C@H](CCCNC(=N)N)NC(=O)[C@H](Cc4ccc(O)cc4)NC(=O)[C@H](CCCCN)NC(=O)[C@H](CCSC)NC(=O)[C@H](CO)NC(=O)[C@H](Cc4cnc[nH]4)NC(=O)[C@H](CCCCN)NC3=O)C(=O)N[C@@H](CCCNC(=N)N)C(=O)N[C@@H](CCCCN)C(=O)N[C@@H]([C@@H](C)O)C(=O)N2)NC(=O)[C@H](CCCNC(=N)N)NC(=O)[C@H](CO)NC(=O)[C@H](CCCCN)NC(=O)[C@@H]2CCCN2C(=O)[C@H]([C@@H](C)CC)NC(=O)[C@H]([C@@H](C)O)NC(=O)[C@H](CC(=O)O)NC1=O`, for which the concentration for half-maximal inhibition (IC50) in test [1] was found to be 0.248 nM; in test [2], 0.222 nM.

`CC[C@H](C)[C@@H]1NC(=O)[C@@H](NC(=O)[C@H](CO)NC(=O)[C@@H](N)CCCNC(=N)N)CSSC[C@@H](C(=O)O)NC(=O)[C@H]([C@@H](C)O)NC(=O)CNC(=O)[C@@H]2CSSC[C@@H]3NC(=O)[C@H](CCC(N)=O)NC(=O)[C@H](Cc4ccccc4)NC(=O)[C@H](C)NC(=O)[C@H]([C@@H](C)O)NC(=O)[C@H](CSSC[C@H](NC(=O)[C@H](Cc4ccccc4)NC(=O)[C@H](CO)NC(=O)[C@H](CC(C)C)NC(=O)[C@H](CCCNC(=N)N)NC(=O)[C@H](Cc4ccc(O)cc4)NC(=O)[C@H](CCCCN)NC(=O)[C@H](CCSC)NC(=O)[C@H](CO)NC(=O)[C@H](Cc4cnc[nH]4)NC(=O)[C@H](Cc4cccc5ccccc45)NC3=O)C(=O)N[C@@H](CCCNC(=N)N)C(=O)N[C@@H](CCCCN)C(=O)N[C@@H]([C@@H](C)O)C(=O)N2)NC(=O)[C@H](CCCNC(=N)N)NC(=O)[C@H](CO)NC(=O)[C@H](CCCCN)NC(=O)[C@@H]2CCCN2C(=O)[C@H]([C@@H](C)CC)NC(=O)[C@H]([C@@H](C)O)NC(=O)[C@H](CC(=O)O)NC1=O`: the IC50 in test [1] was found to be 0.375 nM; in test [2] it was 0.419 nM.

In the case of `CC[C@H](C)[C@@H]1NC(=O)[C@@H](NC(=O)[C@H](CO)NC(=O)[C@@H](N)CCCNC(=N)N)CSSC[C@@H](C(=O)O)NC(=O)[C@H](CCC(=O)O)NC(=O)CNC(=O)[C@@H]2CSSC[C@@H]3NC(=O)[C@H](CCC(N)=O)NC(=O)[C@H](Cc4ccccc4)NC(=O)[C@H](C)NC(=O)[C@H]([C@@H](C)O)NC(=O)[C@H](CSSC[C@H](NC(=O)[C@H](Cc4ccccc4)NC(=O)[C@H](CO)NC(=O)[C@H](CC(C)C)NC(=O)[C@H](CCCNC(=N)N)NC(=O)[C@H](Cc4ccc(O)cc4)NC(=O)[C@H](CCCCN)NC(=O)[C@H](CCSC)NC(=O)[C@H](CO)NC(=O)[C@H](Cc4cnc[nH]4)NC(=O)[C@H](CCCCN)NC3=O)C(=O)N[C@@H](CCCNC(=N)N)C(=O)N[C@@H](CCCCN)C(=O)N[C@@H]([C@@H](C)O)C(=O)N2)NC(=O)[C@H](CCCNC(=N)N)NC(=O)[C@H](CO)NC(=O)[C@H](CCCCN)NC(=O)[C@@H]2CCCN2C(=O)[C@H]([C@@H](C)CC)NC(=O)[C@H]([C@@H](C)O)NC(=O)[C@H](CC(=O)O)NC1=O`, in test [1], inhibition was half-maximal at 0.124 nM (IC50).

With `CC[C@H](C)[C@@H]1NC(=O)[C@@H](NC(=O)[C@H](CO)NC(=O)[C@@H](N)CCCNC(=N)N)CSSC[C@@H](C(=O)O)NC(=O)[C@H]([C@@H](C)O)NC(=O)CNC(=O)[C@@H]2CSSC[C@@H]3NC(=O)[C@H](CCC(N)=O)NC(=O)[C@H](Cc4ccccc4)NC(=O)[C@H](C)NC(=O)[C@H]([C@@H](C)O)NC(=O)[C@H](CSSC[C@H](NC(=O)[C@H](Cc4ccccc4)NC(=O)[C@H](CO)NC(=O)[C@H](CC(C)C)NC(=O)[C@H](C)NC(=O)[C@H](Cc4ccc(O)cc4)NC(=O)[C@H](CCCCN)NC(=O)[C@H](CCSC)NC(=O)[C@H](CO)NC(=O)[C@H](Cc4cnc[nH]4)NC(=O)[C@H](CCCCN)NC3=O)C(=O)N[C@@H](CCCNC(=N)N)C(=O)N[C@@H](CCCCN)C(=O)N[C@@H]([C@@H](C)O)C(=O)N2)NC(=O)[C@H](CCCNC(=N)N)NC(=O)[C@H](CO)NC(=O)[C@H](CCCCN)NC(=O)[C@@H]2CCCN2C(=O)[C@H]([C@@H](C)CC)NC(=O)[C@H]([C@@H](C)O)NC(=O)[C@H](CC(=O)O)NC1=O`, the IC50 came to 0.186 nM in test [1] and 0.045 nM in test [2]. As for `CC[C@H](C)[C@@H]1NC(=O)[C@@H](NC(=O)[C@H](CO)NC(=O)[C@@H](N)CCCNC(=N)N)CSSC[C@@H](C(=O)O)NC(=O)[C@H]([C@@H](C)O)NC(=O)CNC(=O)[C@@H]2CSSC[C@@H]3NC(=O)[C@H](CCC(N)=O)NC(=O)[C@H](Cc4ccccc4)NC(=O)[C@H](C)NC(=O)[C@H]([C@@H](C)O)NC(=O)[C@H](CSSC[C@H](NC(=O)[C@H](Cc4ccccc4)NC(=O)[C@H](CO)NC(=O)[C@H](C)NC(=O)[C@H](CCCNC(=N)N)NC(=O)[C@H](Cc4ccc(O)cc4)NC(=O)[C@H](CCCCN)NC(=O)[C@H](CCSC)NC(=O)[C@H](CO)NC(=O)[C@H](Cc4cnc[nH]4)NC(=O)[C@H](CCCCN)NC3=O)C(=O)N[C@@H](CCCNC(=N)N)C(=O)N[C@@H](CCCCN)C(=O)N[C@@H]([C@@H](C)O)C(=O)N2)NC(=O)[C@H](CCCNC(=N)N)NC(=O)[C@H](CO)NC(=O)[C@H](CCCCN)NC(=O)[C@@H]2CCCN2C(=O)[C@H]([C@@H](C)CC)NC(=O)[C@H]([C@@H](C)O)NC(=O)[C@H](CC(=O)O)NC1=O`, the concentration for half-maximal inhibition (IC50) was 0.641 nM in test [1] and 0.199 nM in test [2]. The corresponding values for `CC[C@H](C)[C@@H]1NC(=O)[C@@H](NC(=O)[C@H](CO)NC(=O)[C@@H](N)CCCNC(=N)N)CSSC[C@@H](C(=O)O)NC(=O)[C@H]([C@@H](C)O)NC(=O)[C@H](C)NC(=O)[C@@H]2CSSC[C@@H]3NC(=O)[C@H](CCC(N)=O)NC(=O)[C@H](Cc4ccccc4)NC(=O)[C@H](C)NC(=O)[C@H]([C@@H](C)O)NC(=O)[C@H](CSSC[C@H](NC(=O)[C@H](Cc4ccccc4)NC(=O)[C@H](CO)NC(=O)[C@H](CC(C)C)NC(=O)[C@H](CCCNC(=N)N)NC(=O)[C@H](Cc4ccc(O)cc4)NC(=O)[C@H](CCCCN)NC(=O)[C@H](CCSC)NC(=O)[C@H](CO)NC(=O)[C@H](Cc4cnc[nH]4)NC(=O)[C@H](CCCCN)NC3=O)C(=O)N[C@@H](CCCNC(=N)N)C(=O)N[C@@H](CCCCN)C(=O)N[C@@H]([C@@H](C)O)C(=O)N2)NC(=O)[C@H](CCCNC(=N)N)NC(=O)[C@H](CO)NC(=O)[C@H](CCCCN)NC(=O)[C@@H]2CCCN2C(=O)[C@H]([C@@H](C)CC)NC(=O)[C@H]([C@@H](C)O)NC(=O)[C@H](CC(=O)O)NC1=O` are 0.122 nM and 0.059 nM. With `CC[C@H](C)[C@@H]1NC(=O)[C@@H](NC(=O)[C@H](CO)NC(=O)[C@@H](N)CCCNC(=N)N)CSSC[C@@H](C(=O)O)NC(=O)[C@H]([C@@H](C)O)NC(=O)CNC(=O)[C@@H]2CSSC[C@@H]3NC(=O)[C@H](CCC(N)=O)NC(=O)[C@H](Cc4ccccc4)NC(=O)[C@H](C)NC(=O)[C@H]([C@@H](C)O)NC(=O)[C@H](CSSC[C@H](NC(=O)[C@H](Cc4ccccc4)NC(=O)[C@H](CO)NC(=O)[C@H](CC(C)C)NC(=O)[C@H](CCCNC(=N)N)NC(=O)[C@H](Cc4ccc(O)cc4)NC(=O)[C@H](CCCCN)NC(=O)[C@H](CCSC)NC(=O)[C@H](CO)NC(=O)[C@H](Cc4cnc[nH]4)NC(=O)[C@H](CCCCN)NC3=O)C(=O)N[C@@H](CCCNC(=N)N)C(=O)N[C@@H](CCCCN)C(=O)N[C@@H]([C@@H](C)O)C(=O)N2)NC(=O)[C@H](Cc2cccc3ccccc23)NC(=O)[C@H](CO)NC(=O)[C@H](CCCCN)NC(=O)[C@@H]2CCCN2C(=O)[C@H]([C@@H](C)CC)NC(=O)[C@H]([C@@H](C)O)NC(=O)[C@H](CC(=O)O)NC1=O`, the IC50 in test [1] stood at 1.65 nM; in test [2], 1.14 nM.

`CC[C@H](C)[C@@H]1NC(=O)[C@@H](NC(=O)[C@H](CO)NC(=O)[C@@H](N)CCCNC(=N)N)CSSC[C@@H](C(=O)O)NC(=O)[C@H]([C@@H](C)O)NC(=O)CNC(=O)[C@@H]2CSSC[C@@H]3NC(=O)[C@H](CCC(N)=O)NC(=O)[C@H](Cc4ccccc4)NC(=O)[C@H](C)NC(=O)[C@H]([C@@H](C)O)NC(=O)[C@H](CSSC[C@H](NC(=O)[C@H](Cc4ccccc4)NC(=O)[C@H](CO)NC(=O)[C@H](CC(C)C)NC(=O)[C@H](CCCNC(=N)N)NC(=O)[C@H](Cc4ccc(O)cc4)NC(=O)[C@H](CCCCN)NC(=O)[C@H](CCSC)NC(=O)[C@H](CO)NC(=O)[C@H](Cc4cccc5ccccc45)NC(=O)[C@H](CCCCN)NC3=O)C(=O)N[C@@H](CCCNC(=N)N)C(=O)N[C@@H](CCCCN)C(=O)N[C@@H]([C@@H](C)O)C(=O)N2)NC(=O)[C@H](CCCNC(=N)N)NC(=O)[C@H](CO)NC(=O)[C@H](CCCCN)NC(=O)[C@@H]2CCCN2C(=O)[C@H]([C@@H](C)CC)NC(=O)[C@H]([C@@H](C)O)NC(=O)[C@H](CC(=O)O)NC1=O`: the IC50 in test [1] turned out to be 0.255 nM; in test [2], 0.153 nM. Compound `CC[C@H](C)[C@@H]1NC(=O)[C@@H](NC(=O)[C@H](CO)NC(=O)[C@@H](N)CCCNC(=N)N)CSSC[C@@H](C(=O)O)NC(=O)[C@H]([C@@H](C)O)NC(=O)CNC(=O)[C@@H]2CSSC[C@@H]3NC(=O)[C@H](CCC(N)=O)NC(=O)[C@H](Cc4ccccc4)NC(=O)[C@H](C)NC(=O)[C@H]([C@@H](C)O)NC(=O)[C@H](CSSC[C@H](NC(=O)[C@H](Cc4ccccc4)NC(=O)[C@H](CO)NC(=O)[C@H](CC(C)C)NC(=O)[C@H](CCCNC(=N)N)NC(=O)[C@H](Cc4ccc(O)cc4)NC(=O)[C@H](CCCCN)NC(=O)[C@H](CCSC)NC(=O)[C@H](CO)NC(=O)[C@H](Cc4cnc[nH]4)NC(=O)[C@H](CCCCN)NC3=O)C(=O)N[C@@H](CCCNC(=N)N)C(=O)N[C@@H](CCCCN)C(=O)N[C@@H]([C@@H](C)O)C(=O)N2)NC(=O)[C@H](CCCNC(=N)N)NC(=O)[C@H](CO)NC(=O)[C@H](CCCCN)NC(=O)[C@H](CCC(=O)O)NC(=O)[C@H]([C@@H](C)CC)NC(=O)[C@H]([C@@H](C)O)NC(=O)[C@H](CC(=O)O)NC1=O` displayed an IC50 in test [1] of 0.239 nM. This lies in the sub-nanomolar range.
